Reference: patent US20110207814A1, “Combination Therapy for Breast Cancer Treatment” (priority 2009, published 2011)
“Also recorded” adds a separate entry of the source.

Experiments:
[1] = system: naïve breast cancer cells; assay: Transwell assay: proliferation of naïve breast cancer cells with MSCs in the inner wells; type: cell-based, human; settings: inner wells: MSCs from co-cultures with AMD3100, compared to antagonist-treated MSCs alone; 48 hours
Experimental: Using mechanistic studies, we next asked whether breast cancer cells proliferation by AMD3100 requires contact between MSCs and breast cancer cells. […] To address this question, we utilized a transwell assay in which “naïve” breast cancer cells, which were not previously exposed to MSCs or AMD3100, were seeded in the outer wells. MSCs from co-cultures with AMD3100 or vehicle were added to the inner wells. In parallel, only vehicle was added to the inner wells.
Breast cancer cells (5×10^4) were added to the outer well of 24-well transwell cultures, 0.4 μM insert (BD Falcon). In parallel, breast cancer cells were separated from co-cultures with MSCs by positive selection with anti-cytokeratin-conjugated; pan anti-mouse IgG Dynabeads (Invitrogen). MSCs from the negative fraction were then added to the inner wells of the transwell chamber in order to determine the effects of MSC-derived soluble factors on breast cancer cell proliferation. For neutralization of soluble IL-1α and IL-1β, anti-IL-1RI was titrated into the 24-well plates.
MSCs were co-cultured with breast cancer cells for 12 days with, or without AMD3100. The MSCs were selected and then added to the inner wells of transwell cultures. Naïve breast cancer cells were placed in the outer wells. After 48 hours, breast cancer cells were counted and the results presented as mean±SD, n=3 (A and B). […]

[2] = system: primary and metastatic breast cancer; settings: mice; cited from earlier work
T47D [3] = system: T47D
Experimental: (§1) Cultures of breast cancer cells and MSCs, alone or in co-culture, from each experimental setup were assayed for cellular proliferation and viability using the CyQuant Cell Proliferation Assay Kit (Molecular Probes; Eugene, Oreg.) and CellTiter-Blue Cell Viability Assay (Promega), respectively, according to manufacturer's specific instructions.
(§2) For assessment of viability, CellTiter-Blue reagent was added to cells grown in 96-well plates, and then incubated for 4 hours at 37° C. Following incubation, wells were read using a fluorescence microplate reader at 560 nm excitation/590 nm emission. Percent viability was calculated from a reference using untreated healthy cells, which were considered 100% viable, and cell-free wells containing reagent alone, which were considered 0% viable.
(§3) Breast cancer cells, cultured alone or with MSCs for 12 days, were treated with AMD3100, or untreated. After 48 hours, all cultures were exposed to carboplatin, with re-added AMD3100 in cultures that had initial AMD3100. After 72 hours, the viable cells were counted (A and B), and presented (C and D) as the mean±SD, n=3. Whole cell extracts from these experiments were analyzed by immunoblot for caspase-3 (E). Membranes were stripped and re-probed with β-actin for normalization. Representative blots are shown, n=3.
(§4) Breast cancer cells cultured in the presence or absence of MSCs for 12 days were treated for 48 hours with AMD3100, or untreated. Following 48 hours, treated and untreated cells were exposed to carboplatin for 72 hours to induce cell death. […] At the end of this regiment cell proliferation (A and B) and viability (C and D) were assessed. The results are presented as the mean±SD, n=3.

MDA-MB-231 [4] = system: MDA-MB-231
Experimental: as §1, §2, §3, §4

caspase-3 = settings: breast cancer cells isolated from co-culture, carboplatin added with AMD3100
Experimental: Whole cell extracts from breast cancer cells and MSCs were prepared in accordance with accepted methods and 20 μg were analyzed by western blots using 4-20% SDS-PAGE (Bio-Rad, Hercules, Calif.). The proteins were transferred onto polyvinylidene difluoride membranes (Perkin Elmer Life Sciences, Boston, Mass.). Membranes were incubated overnight with primary antibodies and then detected the following day by 2 hour incubation with HRP-conjugated IgG. All primary and secondary antibodies were used at final dilutions of 1/1000 and 1/2000, respectively. HRP was developed with chemiluminscence detection reagent (Perkin Elmer Life Sciences). The membranes were stripped with Restore Stripping Buffer (Pierce, Rockford, Ill.) for reprobing with other antibodies.

IL-1α = settings: MDA-MB-231 transwell cultures, MSCs obtained from AMD3100-treated co-cultures, 48 hours
Experimental: (§5) To assess the factor(s) responsible for breast cancer cell proliferation (FIGS. 4A and 4B), media from representative (MDA-MB-231) transwell cultures were analyzed with a cytokine/growth factor microarray.
(§6) Cytokine production by MSCs in the transwell assay was assessed using the Human Cytokine Antibody Array 5 (RayBiotech; Norcross, Ga.). Briefly, after 48 hours of culture, the transwell was removed and the breast cancer cell growth media collected for cytokine determination. Background levels obtained with media alone were subtracted. The densities of spots were quantitated with UN-SCAN-IT densitometry software (Silk Scientific; Orem, Utah).

T47D [5] = assay: CyQuant proliferation of T47D, alone or in co-culture with MSCs
IL-1β = settings: MDA-MB-231 transwell cultures, MSCs obtained from AMD3100-treated co-cultures, 48 hours
Experimental: as §5, §6

MDA-MB-231 [6] = assay: Tumor volume of subcutaneous MDA-MB-231 (with or without MSCs) in nude BALB/c mice; type: in vivo
Experimental: To validate our in vitro studies, female nude BALB/c mice were injected subreast cancerutaneously with 10^6 matrigel-resuspended MDA-MB-231 alone or in combination with 10^6 MSCs, as per the experimental design described in FIG. 7A. Mice were divided into the following experimental groups (n=5 per group): (A) breast cancer cells injected alone; (B) breast cancer cells injected in combination with MSCs; (C) group B plus AMD3100 treatment; (D) group C plus IL-1ra co-treatment. All groups were treated with carboplatin at days 8 and 10 following initial injection of cells, and the animals euthanized at the experimental endpoint of day 12 (D12).
Female nude BALB/c mice (4 weeks) were obtained from Harlan Laboratories (Indianapolis, Ind.) and housed in a laminar flow hood at an AALAC-accredited facility. The use of mice was approved by the Institutional Animal Care and Use Committee, New Jersey Medical School (Newark, N.J.). MDA-MB-231 (10^6), alone or in combination with MSCs (10^6), in 0.1 mL and equal volume of BD Matrigel (BD Biosciences, Bedford, Mass.) were injected by subreast cancerutaneous route in the nude mice (Day 0, D0). After 4 days, the tumors were injected with AMD3100 alone or in combination with IL-1ra or vehicle (hereafter termed ‘treatment’). Mice were given a second ‘treatment’ at D8 along with a first dose of chemotherapy delivered intra-peritoneally. A second dose of chemotherapy was given at D10 and the mice euthanized at D12.
In FIG. 7, the effects of AMD3100 and carboplatin on tumor volume are represented. The method by which mice were treated is shown in (A). (B) Female BALB/c (n=5) were injected subreast cancerutaneously with matrigel and 10^6 MDA-MB-231 alone or in combination with 10^6 MSCs. The mean volumes at the first injection (day 8, D8) are normalized to 100% and the change in volumes at D10 and D12 are presented as mean±SD.

[7] = system: hematopoietic stem cells (HSCs); settings: potential side effect in combination with chemotherapy; cited from earlier work
MDA-MB-231 [8] = system: MDA-MB-231; remark: listed apart in the source
Experimental: The study of the molecular disruption of CXCL12-CXCR4 with a CXCR4 antagonist, AMD3100 was expanded. We first examined the effects of AMD3100 on the proliferation of MDA-MB-231 and T47D, in co-culture with MSCs (FIGS. 1D and 1E), in the presence of two different concentrations of the antagonist (10 and 100 ng/ml) for the 48-hour culture. Parallel cultures contained vehicle.
Some studies also looked at AMD3100 in long-term breast cancer cell/MSC co-cultures. In this set of studies we determined the effect of AMD3100 when breast cancer cells were cultured with MSCs for over 48 hours since this will recapitulate in situ when breast cancer cells are expected to contact MSCs for long periods. […] Control cultures contained vehicle (−) and 2-day exposure to AMD3100 (D2).
as §1
For determination of proliferation, cells grown in 96-well plates were frozen overnight at −70° C. The next day, thawed cells were incubated in CyQuant GR dye/cell-lysis buffer for 5 minutes at room temperature, and examined using a fluorescence microplate reader at 480 nm excitation/520 nm emission. Proliferation was calculated from a standard curve of known numbers of breast cancer cells and MSCs. To accurately assess the proliferation of breast cancer cells, but not MSC proliferation in co-culture, proliferation of MSCs grown alone were subtracted from the total cellular proliferation recorded.

CXCR7 = CXCR7 (Homo sapiens, UniProt P25106); settings: cited from earlier work
Sequence of CXCR7 (P25106 whole entry, species assumed): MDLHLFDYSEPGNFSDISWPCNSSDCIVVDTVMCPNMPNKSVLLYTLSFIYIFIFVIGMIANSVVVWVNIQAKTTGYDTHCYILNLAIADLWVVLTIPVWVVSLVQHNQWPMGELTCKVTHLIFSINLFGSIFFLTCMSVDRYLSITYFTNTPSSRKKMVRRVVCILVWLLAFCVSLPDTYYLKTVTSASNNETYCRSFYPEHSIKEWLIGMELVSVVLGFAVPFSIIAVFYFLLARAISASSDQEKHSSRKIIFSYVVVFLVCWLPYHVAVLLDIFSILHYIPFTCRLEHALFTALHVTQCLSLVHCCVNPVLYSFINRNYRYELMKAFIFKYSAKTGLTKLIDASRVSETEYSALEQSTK

breast cancer cells = settings: 12-day co-culture with MSCs, AMD3100 for the last 48 hours, compared to no treatment
Experimental: We studied cell cycle phase of 12-day co-cultured breast cancer cells, with or without AMD3100, as described for FIG. 2. Breast cancer cells cultured alone served as control. […] FIG. 3B illustrates a representative histogram of the proportion of cycling (peaks 2 and 3) versus non-cycling (peak 1) MDA-MB-231 co-cultured with MSCs, with (right) or without AMD3100 (left).
Breast cancer cells and MSC co-cultures were incubated with anti-cytokeratin primary and FITC-anti IgG secondary antibodies to label the breast cancer cell fraction. Cells were then treated with RNase A (1 mg/ml) and fixed with cold 70% ethanol. Cells were stained with 20 μg/ml propidium iodide (PI) solution and transferred to round bottom tubes for DNA analysis by BD FACScan. Double positive cells identified only the desired cellular fraction, consisting of breast cancer cells that incorporated the DNA dye. Cultures incubated with FITC anti-IgG alone were used as isotype controls. All analyses were performed using BD CellQuest software and percent statistics were given.
Breast cancer cells, alone or 12-day cultures with MSCs were treated with AMD3100 for the last 48 hours or untreated. At the end of the assay, cells were co-labeled with anti-cytokeratin and propidium iodide and then analyzed by flow cytometry. Results are presented as the mean percent cycling cells (S+G2/M phases)±SD, n=3 (B). […]

[9] = T47D + MSCs, AMD3100 48 hours, then carboplatin 72 hours in the absence of AMD3100 (FIG. 6)
[10] = MDA-MB-231 + MSCs, AMD3100 48 hours, then carboplatin 72 hours in the absence of AMD3100 (FIG. 6)

In the case of `c1cc(CN2CCCNCCNCCCNCC2)ccc1CN1CCCNCCNCCCNCC1` [AMD3100], the “naïve breast cancer cell proliferation in transwells” value [1] is listed as “significant (p<0.05) increase”, the “effect on primary and metastatic breast cancer” value [2] is listed as “can decrease primary and metastatic breast cancer in mice” and the “overall survival for experimental lung metastases” value [2] is listed as “no effect on the overall survival”. For the same molecule, the “cell viability with AMD3100” value (T47D [3]) was “no change in cell viability”, the “resistance to carboplatin when chemotherapy was added with AMD3100” value (T47D [3]; T47D + MSCs 12 days, AMD3100 48 hours then carboplatin with re-added AMD3100 72 hours) was “resistance was compromised” and the “viability after AMD3100 pre-treatment and chemotherapy without the antagonist” value (T47D [3]; [9]) was “effect on cell proliferation and viability was lost”. For the same molecule, the “cell viability with AMD3100” value (MDA-MB-231 [4]) was “no change in cell viability”, the “resistance to carboplatin when chemotherapy was added with AMD3100” value (MDA-MB-231 [4]; MDA-MB-231 + MSCs 12 days, AMD3100 48 hours then carboplatin with re-added AMD3100 72 hours) was “resistance was compromised” and the “viability after AMD3100 pre-treatment and chemotherapy without the antagonist” value (MDA-MB-231 [4]; [10]) was “effect on cell proliferation and viability was lost”. The caspase-3 immunoreactivity (caspase-3) was “increased caspase-3 immunoreactivity”, the “IL-1α in transwell media, fold greater” value (IL-1α) was 3 fold and the “proliferation in 12-day (D12) co-culture with MSCs” value (T47D [5]; T47D + MSCs 12 days, optimal AMD3100 during the last 48 hours, effect on the MSC-mediated decrease) was “significantly (p<0.05) reversed”. The “AMD3100 concentration of sensitivity (optimal dose for proliferation)” value (T47D [5]; T47D + MSCs, 48-hour culture) was 100 ng/mL, the “proliferation of breast cancer cells in co-cultures with MSCs” value (T47D [5]; T47D + MSCs, 48-hour culture, AMD3100 10 and 100 ng/ml, compared to breast cancer cells alone (FIG. 1E)) was “promoted the proliferation” and the “cell proliferation after AMD3100 pre-treatment and chemotherapy without the antagonist” value (T47D [5]; [9]) was “effect on cell proliferation and viability was lost”. The “proliferation of breast cancer cells alone” value (T47D [5]; T47D cultured alone, 48 hours, AMD3100) was “decrease in cell proliferation”, the “relation of proliferation to AMD3100 concentration” value (T47D [5]; T47D, closed circles FIG. 1E, 10 and 100 ng/ml) was “inversely related to AMD3100 concentration” and the “time at which the increase in proliferation began” value (T47D [5]; T47D, optimal AMD3100 dose, relative to MDA-MB-231) was “at a later time point”. For the same molecule, the “optimum time for AMD3100-mediated proliferation” value (T47D [5]; T47D, optimal AMD3100 dose, various times (FIG. 1G)) was 48 h, the “IL-1β in transwell media, fold greater” value (IL-1β) was 5 fold and the “mean tumor volume by D12” value (MDA-MB-231 [6]; group C: breast cancer cells + MSCs, tumors injected with AMD3100, carboplatin at days 8 and 10) was “significant reduction in tumor volume; also recorded: significantly (p<0.05) reversed the chemoprotective effect of MSCs”. The “mobilization of hematopoietic stem cells” value [7] was “can mobilize hematopoietic stem cells”, the “proliferation in 12-day (D12) co-culture with MSCs” value (MDA-MB-231 [8]; MDA-MB-231 + MSCs 12 days, optimal AMD3100 during the last 48 hours, effect on the MSC-mediated decrease) was “significantly (p<0.05) reversed” and the “AMD3100 concentration of sensitivity (optimal dose for proliferation)” value (MDA-MB-231 [8]; MDA-MB-231 + MSCs, 48-hour culture) was 10 ng/mL. For the same molecule, the “proliferation of breast cancer cells in co-cultures with MSCs” value (MDA-MB-231 [8]; MDA-MB-231 + MSCs, 48-hour culture, AMD3100 10 and 100 ng/ml, compared to breast cancer cells alone (FIG. 1D)) was “promoted the proliferation”, the “cell proliferation after AMD3100 pre-treatment and chemotherapy without the antagonist” value (MDA-MB-231 [8]; [10]) was “effect on cell proliferation and viability was lost” and the “time at which the increase in proliferation began” value (MDA-MB-231 [8]; MDA-MB-231, optimal AMD3100 dose) was 1 h. For the same molecule, the “optimum time for AMD3100-mediated proliferation” value (MDA-MB-231 [8]; MDA-MB-231, optimal AMD3100 dose, various times (FIG. 1F)) was 48 h, the “proliferation of breast cancer cells alone” value (MDA-MB-231 [8]; MDA-MB-231 cultured alone, 48 hours, AMD3100) was “decrease in cell proliferation” and the “action on CXCR7” value (CXCR7) was “allosteric agonist of CXCR7”. For the same molecule, the “cycling cells (S/G2/M phase)” value (breast cancer cells) was “significant (p<0.05) increase in cycling cells”.

In the case of `N.N.O=C([O-])C1(C(=O)[O-])CCC1.[Pt+2]` [carboplatin], the “response to carboplatin (viable cells / viability) in co-culture with MSCs” value (T47D [3]; T47D + MSCs 12 days, carboplatin 72 hours, no AMD3100, compared to breast cancer cells alone) is reported as “chemoresistant”, the “response to carboplatin (viable cells / viability) in co-culture with MSCs” value (MDA-MB-231 [4]; MDA-MB-231 + MSCs 12 days, carboplatin 72 hours, no AMD3100, compared to breast cancer cells alone) is reported as “chemoresistant” and the “mean tumor volume by D12” value (MDA-MB-231 [6]; group A: breast cancer cells injected alone, carboplatin at days 8 and 10) is reported as “drastic reduction in mean tumor volume”. For the same molecule, the “mean tumor volume by D12” value (MDA-MB-231 [6]; group B: breast cancer cells co-injected with MSCs, carboplatin at days 8 and 10, effect on the reduction seen in group A) was “significantly (p<0.05) impeded”.

In the case of “IL-1ra: IL-1 receptor antagonist used to block the activity of IL-1 in the mouse tumor model”, the “mean tumor volume by D12” value (MDA-MB-231 [6]; group D: group C plus IL-1ra co-treatment, effect on the AMD3100 response) is reported as “negated this response”.
